Results taken from the NIST ThermoML archive (doi:10.1016/j.jct.2016.06.001).
Numbers after ± are expanded uncertainties.

Conditions: Liquid, Frequency=8 MHz, Pulse-echo method

OCCO [1,2-ethanediol]
Conditions | speed of sound [m/s]
273.15 K, 99 kPa | 1713.8 ± 0.82
273.15 K, 5204 kPa | 1727.5 ± 0.82
273.15 K, 10344 kPa | 1740.9 ± 0.83
273.15 K, 15152 kPa | 1753.2 ± 0.83
273.15 K, 20194 kPa | 1765.9 ± 0.84
273.15 K, 25132 kPa | 1778.1 ± 0.84
273.15 K, 30171 kPa | 1789.9 ± 0.85
293.15 K, 99 kPa | 1665.8 ± 0.8
293.15 K, 5051 kPa | 1679.8 ± 0.81
293.15 K, 10070 kPa | 1693.5 ± 0.81
293.15 K, 15176 kPa | 1707.2 ± 0.82
293.15 K, 20158 kPa | 1720.2 ± 0.82
293.15 K, 25108 kPa | 1732.9 ± 0.83
293.15 K, 30024 kPa | 1745.3 ± 0.83
313.15 K, 100 kPa | 1618.5 ± 0.78
313.15 K, 5031 kPa | 1633.1 ± 0.79
313.15 K, 10028 kPa | 1647.3 ± 0.79
313.15 K, 15117 kPa | 1661.7 ± 0.8
313.15 K, 20088 kPa | 1675.3 ± 0.81
313.15 K, 25102 kPa | 1688.7 ± 0.81
313.15 K, 29983 kPa | 1701.6 ± 0.81
333.15 K, 99 kPa | 1570.7 ± 0.76
333.15 K, 5054 kPa | 1586.1 ± 0.77
333.15 K, 10048 kPa | 1601.1 ± 0.78
333.15 K, 15067 kPa | 1615.8 ± 0.78
333.15 K, 20106 kPa | 1630.3 ± 0.79
333.15 K, 25103 kPa | 1644.3 ± 0.79
333.15 K, 29958 kPa | 1657.7 ± 0.8
353.15 K, 100 kPa | 1521.8 ± 0.74
353.15 K, 5079 kPa | 1538.1 ± 0.75
353.15 K, 10048 kPa | 1553.8 ± 0.76
353.15 K, 15054 kPa | 1569.3 ± 0.76
353.15 K, 20071 kPa | 1584.4 ± 0.77
353.15 K, 25078 kPa | 1599.1 ± 0.78
353.15 K, 29995 kPa | 1613.3 ± 0.78

CC(O)CO (stereo not given) [1,2-propanediol]
Conditions | speed of sound [m/s]
303.15 K, 99 kPa | 1494.4 ± 0.75
303.15 K, 5091 kPa | 1513.5 ± 0.75
303.15 K, 10060 kPa | 1532 ± 0.76
303.15 K, 15098 kPa | 1550.2 ± 0.77
303.15 K, 20084 kPa | 1567.7 ± 0.78
303.15 K, 25068 kPa | 1584.7 ± 0.78
303.15 K, 30167 kPa | 1601.6 ± 0.79
313.15 K, 99 kPa | 1465.9 ± 0.74
313.15 K, 5014 kPa | 1485.5 ± 0.74
313.15 K, 10053 kPa | 1504.8 ± 0.75
313.15 K, 15011 kPa | 1523.2 ± 0.76
313.15 K, 20095 kPa | 1541.5 ± 0.77
313.15 K, 25202 kPa | 1559.4 ± 0.77
313.15 K, 30222 kPa | 1576.5 ± 0.78
333.15 K, 100 kPa | 1408.9 ± 0.71
333.15 K, 5039 kPa | 1429.7 ± 0.72
333.15 K, 10054 kPa | 1450.1 ± 0.73
333.15 K, 15107 kPa | 1469.8 ± 0.74
333.15 K, 20131 kPa | 1489 ± 0.74
333.15 K, 25131 kPa | 1507.4 ± 0.75
333.15 K, 30024 kPa | 1524.9 ± 0.76
353.15 K, 99 kPa | 1350.9 ± 0.69
353.15 K, 5042 kPa | 1373 ± 0.7
353.15 K, 10055 kPa | 1394.6 ± 0.71
353.15 K, 15135 kPa | 1415.6 ± 0.72
353.15 K, 20093 kPa | 1435.5 ± 0.72
353.15 K, 25086 kPa | 1454.8 ± 0.73
353.15 K, 30207 kPa | 1474.1 ± 0.74

CC(C)CO [2-methyl-1-propanol]
Conditions | speed of sound [m/s]
253.15 K, 102 kPa | 1347.3 ± 0.68
253.15 K, 5144 kPa | 1373.7 ± 0.69
253.15 K, 10257 kPa | 1399.1 ± 0.7
253.15 K, 15122 kPa | 1422.2 ± 0.71
253.15 K, 20400 kPa | 1446.6 ± 0.72
253.15 K, 25315 kPa | 1468 ± 0.73
253.15 K, 30039 kPa | 1488.7 ± 0.73
273.15 K, 105 kPa | 1274.2 ± 0.65
273.15 K, 5154 kPa | 1302.8 ± 0.66
273.15 K, 10139 kPa | 1329.4 ± 0.67
273.15 K, 15072 kPa | 1354.7 ± 0.68
273.15 K, 20215 kPa | 1380 ± 0.69
273.15 K, 25138 kPa | 1403.2 ± 0.7
273.15 K, 30242 kPa | 1426.4 ± 0.71
293.15 K, 102 kPa | 1204.9 ± 0.62
293.15 K, 5004 kPa | 1234.9 ± 0.64
293.15 K, 10097 kPa | 1264.2 ± 0.65
293.15 K, 15140 kPa | 1291.7 ± 0.66
293.15 K, 20220 kPa | 1318.2 ± 0.67
293.15 K, 25063 kPa | 1342.5 ± 0.68
293.15 K, 30100 kPa | 1366.7 ± 0.69
313.15 K, 104 kPa | 1138.1 ± 0.6
313.15 K, 5135 kPa | 1171.1 ± 0.61
313.15 K, 10050 kPa | 1201.4 ± 0.62
313.15 K, 15190 kPa | 1231.5 ± 0.64
313.15 K, 20126 kPa | 1259 ± 0.65
313.15 K, 25019 kPa | 1285.1 ± 0.66
313.15 K, 30259 kPa | 1311.7 ± 0.67
333.15 K, 100 kPa | 1071.8 ± 0.57
333.15 K, 5187 kPa | 1108 ± 0.59
333.15 K, 10181 kPa | 1141.3 ± 0.6
333.15 K, 15331 kPa | 1173.6 ± 0.61
333.15 K, 20135 kPa | 1202 ± 0.62
333.15 K, 25174 kPa | 1230.4 ± 0.64
333.15 K, 30144 kPa | 1257 ± 0.65
353.15 K, 104 kPa | 1004.1 ± 0.55
353.15 K, 5055 kPa | 1042.8 ± 0.56
353.15 K, 10093 kPa | 1079.4 ± 0.58
353.15 K, 15238 kPa | 1114.2 ± 0.59
353.15 K, 20157 kPa | 1145.4 ± 0.6
353.15 K, 25111 kPa | 1175.1 ± 0.61
353.15 K, 30108 kPa | 1203.6 ± 0.62
